Assay results published in US8557816B2, “Aurora kinase modulators and method of use” (Amgen Inc., priority 2007, dated 2013).

How the values were obtained:
AuroraA-TPX2 = molecular target: T1, AuroraA-TPX2 (Homo sapiens, UniProt O14965); test: AuroraA-TPX2 Homogeneous Time Resolved Fluorescent (HTRF) kinase assay; type: biochemical; conditions: average; read-out: AurA_IC50_IP (uM Avg)
T1 construct: 20 μL of AuroraA-TPX2 KD GST for a final volume of about 41 μL; GST
T1 sequence (O14965 133-383 limits assumed): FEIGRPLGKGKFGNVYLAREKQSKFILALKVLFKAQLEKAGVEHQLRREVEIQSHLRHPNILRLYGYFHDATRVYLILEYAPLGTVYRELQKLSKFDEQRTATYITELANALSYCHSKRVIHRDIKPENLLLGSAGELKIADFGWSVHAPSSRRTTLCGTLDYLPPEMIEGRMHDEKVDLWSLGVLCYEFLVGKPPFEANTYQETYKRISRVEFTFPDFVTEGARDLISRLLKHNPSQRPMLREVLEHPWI
T1 sequence (Q9ULW0 1-43 partner limits assumed): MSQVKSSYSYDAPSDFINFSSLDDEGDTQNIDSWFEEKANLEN
Method in brief: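 HTRF read-out (Eu 615 nm to APC 655 nm) of phosphorylated biotin-PLK, detected with 0.02 nM europium anti-phosphoPLK antibody and 0.0005 mg/mL SA-APC after overnight equilibration.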

AuroraB = molecular target: T2, AuroraB (Homo sapiens, UniProt Q96GD4); test: AuroraB Homogeneous Time Resolved Fluorescent (HTRF) kinase assay; type: biochemical; conditions: average; read-out: AurB_IC50_IP (uM Avg)
T2 construct: 20 μL of AuroraB FL H is for a final volume of 41 μL; His
T2 sequence (Q96GD4 whole entry): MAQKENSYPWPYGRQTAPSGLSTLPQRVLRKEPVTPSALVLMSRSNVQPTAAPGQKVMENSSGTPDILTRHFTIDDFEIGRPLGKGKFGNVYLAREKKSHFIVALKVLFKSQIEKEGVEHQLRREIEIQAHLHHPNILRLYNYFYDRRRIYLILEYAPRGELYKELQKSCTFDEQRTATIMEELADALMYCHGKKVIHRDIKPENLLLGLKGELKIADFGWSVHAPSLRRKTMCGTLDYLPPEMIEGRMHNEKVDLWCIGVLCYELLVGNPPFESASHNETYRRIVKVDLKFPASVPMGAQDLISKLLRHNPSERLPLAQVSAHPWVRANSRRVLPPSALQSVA
Method in brief: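 Read-out is time-resolved FRET between europium anti-phospho-H3 antibody and streptavidin-APC, added in EDTA buffer to stop the reaction and equilibrated about 60 min (ex 320, em 615 and 655 nm). Preceding reaction: ~90 min, full-length enzyme, ATP, 0.1 μM biotin-Histone H3 substrate, Mg/Mn HEPES buffer pH 7.5.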

| IC50 (AuroraA-TPX2) | IC50 (AuroraB) | SMILES |
| --- | --- | --- |
| 0.058 µM | 0.057 µM | O=C(c1cc2nccc(Sc3ccc(Nc4nnc(-c5ccc(Cl)cc5)c5ccccc45)cc3)c2s1)N1CCOCC1 [compound 314, (7-(4-(4-(4-chlorophenyl)phthalazin-1-ylamino)phenylthio)thieno[3,2-b]pyridin-2-yl)(morpholino)methanone] |
| 0.036 µM | 0.031 µM | COc1ccc2nccc(Sc3ccc(Nc4nnc(-c5ccc(Cl)cc5)c5ccccc45)cc3)c2c1 [compound 315, 4-(4-chlorophenyl)-N-(4-(6-methoxyquinolin-4-ylthio)phenyl)phthalazin-1-amine] |
| 0.014 µM | 0.023 µM | COc1cnc2c(Oc3ccc(Nc4nnc(-c5cc(Cl)cs5)c5ccccc45)cc3)ccnc2c1 [compound 316, 4-(4-chloro-2-thienyl)-N-(4-((7-(methyloxy)-1,5-naphthyridin-4-yl)oxy)phenyl)-1-phthalazinamine] |
| 0.018 µM | 0.015 µM | COc1cnc2c(Oc3ccc(Nc4nnc(-c5cccc(C)c5)c5ccccc45)cc3)ccnc2c1 [compound 317, N-(4-((7-(methyloxy)-1,5-naphthyridin-4-yl)oxy)phenyl)-4-(3-methylphenyl)-1-phthalazinamine] |
| 0.176 µM | 0.02 µM | COc1ccc2c(Cc3ccc(Nc4nnc(-c5ccccc5)c5ccccc45)cc3)ccnc2c1 [compound 319, N-(4-((7-(methyloxy)-4-quinolinyl)methyl)phenyl)-4-phenyl-1-phthalazinamine] |
| 0.112 µM | 0.067 µM | CCc1cc(N2CC[C@H]3CCCC[C@@H]3C2)nnc1Nc1ccc(Oc2ccnc3cc(OC)cnc23)cc1 [compound 320, 4-ethyl-N-(4-((7-(methyloxy)-1,5-naphthyridin-4-yl)oxy)phenyl)-6-((4aR,8aS)-octahydro-2(1H)-isoquinolinyl)-3-pyridazinamine] |
| 0.304 µM | 0.051 µM | CCc1cc(N2CCCCC2)nnc1Nc1ccc(Oc2ccnc3cc(OC)cnc23)cc1 [compound 321, 4-ethyl-N-(4-((7-(methyloxy)-1,5-naphthyridin-4-yl)oxy)phenyl)-6-(1-piperidinyl)-3-pyridazinamine] |
| 0.033 µM | 0.032 µM | CCc1cc(-c2ccc(C)cc2)nnc1Nc1ccc(Sc2ccnc3cc(OC)cnc23)cc1 [compound 322, 4-ethyl-N-(4-((7-(methyloxy)-1,5-naphthyridin-4-yl)thio)phenyl)-6-(4-methylphenyl)-3-pyridazinamine] |
| 0.035 µM | 0.063 µM | Clc1ccc(-c2nnc(Nc3ccc(Sc4ccnc5cc(Br)cnc45)cc3)c3ccccc23)cc1 [compound 324, N-(4-((7-bromo-1,5-naphthyridin-4-yl)thio)phenyl)-4-(4-chlorophenyl)-1-phthalazinamine] |
| 0.013 µM | 0.019 µM | COc1cnc2c(Sc3ccc(Nc4nnc(-c5ccc(Cl)cn5)c5ccccc45)cc3)ccnc2c1 [compound 325, 4-(5-chloro-2-pyridinyl)-N-(4-((7-(methyloxy)-1,5-naphthyridin-4-yl)thio)phenyl)-1-phthalazinamine] |
| 0.026 µM | 0.039 µM | COc1cc2c(Oc3ccc(Nc4nnc(-c5ccccc5)c5ccccc45)cc3)ccnc2cc1OCc1ccccc1 [compound 326, N-(4-((6-(methyloxy)-7-((phenylmethyl)oxy)-4-quinolinyl)oxy)phenyl)-4-phenyl-1-phthalazinamine] |
| 0.118 µM | 0.014 µM | COc1cccc(-c2nnc(Nc3ccc(Sc4ccnc5ccccc45)cc3)c3ccccc23)n1 [compound 327, 4-(6-(methyloxy)-2-pyridinyl)-N-(4-(4-quinolinylthio)phenyl)-1-phthalazinamine] |
| 0.047 µM | 0.032 µM | COc1ccc2c(Cc3ccc(Nc4nnc(-c5ccc(Cl)cc5)c5ccccc45)cc3)ccnc2c1 [compound 328, 4-(4-chlorophenyl)-N-(4-((7-(methyloxy)-4-quinolinyl)methyl)phenyl)-1-phthalazinamine] |
| 0.114 µM | 0.009 µM | c1ccc(-c2nnc(Nc3ccc(Sc4ccnc5[nH]ccc45)cc3)c3ccccc23)cc1 [compound 329, 4-phenyl-N-(4-(1H-pyrrolo[2,3-b]pyridin-4-ylthio)phenyl)-1-phthalazinamine] |
| 0.038 µM | 0.009 µM | Clc1ccc(-c2nnc(Nc3ccc(Sc4ccnc5[nH]ccc45)cc3)c3ccccc23)cc1 [compound 330, 4-(4-chlorophenyl)-N-(4-(1H-pyrrolo[2,3-b]pyridin-4-ylthio)phenyl)-1-phthalazinamine] |
| 0.192 µM | 0.155 µM | COc1ccc2c(Sc3ccc(Nc4nnc(-c5ccccc5)c5ccccc45)cc3)ccnc2c1 [compound 331, N-(4-((7-(methyloxy)-4-quinolinyl)thio)phenyl)-4-phenyl-1-phthalazinamine] |

| IC50 (AuroraA-TPX2) | IC50 (AuroraB) | SMILES |
| --- | --- | --- |
| 0.016 µM | 0.003 µM | Clc1ccc(-c2nnc(Nc3ccc(Sc4ccnc5ccsc45)cc3)c3ccccc23)cc1 [compound 332, 4-(4-chlorophenyl)-N-(4-(thieno[3,2-b]pyridin-7-ylthio)phenyl)-1-phthalazinamine] |
| 0.049 µM | 0.067 µM | COc1ccc2c(Sc3ccc(Nc4nnc(-c5ccc(Cl)cc5)c5ccccc45)cc3)ccnc2c1 [compound 334, 4-(4-chlorophenyl)-N-(4-(7-methoxyquinolin-4-ylthio)phenyl)phthalazin-1-amine] |
| 0.062 µM | 0.021 µM | CCc1cc(-c2cccc(Cl)c2)nnc1Nc1ccc(Oc2ccnc3cc(OC)cnc23)cc1 [compound 335, 6-(3-chlorophenyl)-4-ethyl-N-(4-(7-methoxy-1,5-naphthyridin-4-yloxy)phenyl)pyridazin-3-amine] |
| 0.019 µM | 0.01 µM | Cc1csc(-c2nnc(Nc3ccc(Sc4ccnc5cccnc45)cc3)c3ccccc23)c1 [compound 336, N-(4-(1,5-naphthyridin-4-ylthio)phenyl)-4-(4-methylthiophen-2-yl)phthalazin-1-amine] |
| 0.076 µM | 0.015 µM | COc1cnc2c(Oc3ccc(Nc4nnc(N5CCSCC5)c5ccccc45)cc3)ccnc2c1 [compound 337, N-(4-(7-methoxy-1,5-naphthyridin-4-yloxy)phenyl)-4-thiomorpholinophthalazin-1-amine] |
| 0.005 µM | 0.009 µM | Cn1cc(-c2ccc3c(Oc4ccc(Nc5nnc(-c6ccccc6)c6ccccc56)cc4)ccnc3c2)cn1 [compound 338, N-(4-(7-(1-methyl-1H-pyrazol-4-yl)quinolin-4-yloxy)phenyl)-4-phenylphthalazin-1-amine] |
| 0.021 µM | 0.028 µM | c1ccc(-c2nnc(Nc3ccc(Oc4ccnc5cc(-c6ccsc6)ccc45)cc3)c3ccccc23)cc1 [compound 339, 4-phenyl-N-(4-(7-(thiophen-3-yl)quinolin-4-yloxy)phenyl)phthalazin-1-amine] |
| 0.189 µM | 0.045 µM | Fc1cc(F)c2c(Sc3ccc(Nc4nnc(-c5ccc(Cl)cc5)c5ccccc45)cc3)ccnc2c1 [compound 342, 4-(4-chlorophenyl)-N-(4-(5,7-difluoroquinolin-4-ylthio)phenyl)phthalazin-1-amine] |
| 0.024 µM | 0.008 µM | c1ccc(-c2nnc(Nc3ccc(Oc4ccnc5cc(-c6ccoc6)ccc45)cc3)c3ccccc23)cc1 [compound 343, N-(4-(7-(furan-3-yl)quinolin-4-yloxy)phenyl)-4-phenylphthalazin-1-amine] |
| 0.057 µM | 0.022 µM | Cc1ccc(-c2ccc3c(Oc4ccc(Nc5nnc(-c6ccccc6)c6ccccc56)cc4)ccnc3c2)o1 [compound 344, N-(4-(7-(5-methylfuran-2-yl)quinolin-4-yloxy)phenyl)-4-phenylphthalazin-1-amine] |
| 0.04 µM | 0.024 µM | COc1ccc2c(Oc3ccc(Nc4nnc(-c5ccc(Cl)cc5)c5ccccc45)cc3)ccnc2c1 [compound 345, 4-(4-chlorophenyl)-N-(4-(7-methoxyquinolin-4-yloxy)phenyl)phthalazin-1-amine] |
| 0.044 µM | 0.024 µM | COc1cnc2c(Sc3ccc(Nc4nnc(N5CCCCC5)c5ccccc45)cc3)ccnc2c1 [compound 346, N-(4-(7-methoxy-1,5-naphthyridin-4-ylthio)phenyl)-4-(piperidin-1-yl)phthalazin-1-amine] |
| 0.067 µM | 0.01 µM | COc1ccc2nccc(Oc3ccc(Nc4nnc(-c5ccccc5)c5ccccc45)cc3)c2n1 [compound 347, N-(4-(6-methoxy-1,5-naphthyridin-4-yloxy)phenyl)-4-phenylphthalazin-1-amine] |
| 0.057 µM | 0.023 µM | COc1ccc2nccc(Sc3ccc(Nc4nnc(-c5ccc(Cl)cc5)c5ccccc45)cc3)c2n1 [compound 348, 4-(4-chlorophenyl)-N-(4-(6-methoxy-1,5-naphthyridin-4-ylthio)phenyl)phthalazin-1-amine] |
| 0.04 µM | 0.007 µM | COc1cnc2c(Oc3ccc(Nc4nnc(-c5cc(C)no5)c5ccccc45)cc3)ccnc2c1 [compound 350, N-(4-(7-methoxy-1,5-naphthyridin-4-yloxy)phenyl)-4-(3-methylisoxazol-5-yl)phthalazin-1-amine] |
